Source: US9247759B2, “Identification of human T2R receptors that respond to bitter compounds that elicit the bitter taste in compositions, and the use thereof in assays to identify compounds that inhibit (block) bitter taste in compositions and use thereof” (SENOMYX, INC., priority 2007, dated 2016)

Biological target: hT2R14 (Homo sapiens (Human), UniProt Q9NYV8)
Assay: hT2R14 antagonist high-throughput FLIPR assay, stable cell line with G16g44, agonist aristolochic acid
Format: cell-based
Conditions: Table C; read-out: hT2R14 IC50
Procedure: The inventors also used the automated fluorimetric […] system FLIPR using a slightly different protocol. A HEK293 cell line stably expressing G16gust44 was transfected with a hT2R expression plasmid, 24 hours later, the cells are loaded and analyzed on FLIPR.
After a ligand is identified for a particular hT2R, a HEK293 cell line stably expressing both the hT2R and G16gust44 are generated, facilitating future screening assays to identify other ligands that activate the particular hT2R or which modulate (block or enhance) the activation of this hT2R by another bitter ligand such as a bitter compound contained in coffee. This avoids the need for transient transfection.
To identify antagonists, cell lines stably expressing hT2R8 and hT2R14, respectively, together with the promiscuous chimeric G16g44 protein were generated as described in previous patent applications. A high-throughput assay was established using the stable cell lines and FLIPR (Fluorescent Imaging Plate Reader). An agonist of hT2R8 or hT2R14 was used to activate the receptors up to 70-80% of their respective maximal activity. For hT2R8, the agonist used was andrographolide (200 […]); for hT2R14, it was aristolochic acid (3 μM). To identify antagonists, compounds with diverse chemical structures were added together with the agonist.

hT2R14, sequence (Q9NYV8 whole entry): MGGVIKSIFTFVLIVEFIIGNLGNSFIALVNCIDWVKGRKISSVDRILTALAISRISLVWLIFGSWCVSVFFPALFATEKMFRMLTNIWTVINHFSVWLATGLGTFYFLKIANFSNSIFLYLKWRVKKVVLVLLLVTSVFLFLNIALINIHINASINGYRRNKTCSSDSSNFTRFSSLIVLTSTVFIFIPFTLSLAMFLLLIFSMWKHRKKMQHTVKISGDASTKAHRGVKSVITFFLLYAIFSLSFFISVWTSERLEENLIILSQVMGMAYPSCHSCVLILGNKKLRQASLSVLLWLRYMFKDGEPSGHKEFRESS

Row | SMILES | IC50 [nM]
1 | O=C(O)c1ccc(CN(Cc2ccccc2)S(=O)(=O)c2ccc(Cl)cc2)cc1 [Example 5-120, 4-((N-benzyl-4-chlorophenylsulfonamido)methyl)benzoic acid] | 394
2 | COc1ccc(CN(Cc2ccccc2OC)S(=O)(=O)c2ccc(C(=O)O)cc2)cc1 [Example 5-121, 4-(N-(2-methoxybenzyl)-N-(4-methoxybenzyl)sulfamoyl)benzoic acid] | 2940
3 | COc1ccc(CN(Cc2ccccc2)S(=O)(=O)c2cccc(OC)c2)cc1 [Example 5-122, N-benzyl-3-methoxy-N-(4-methoxybenzyl)benzenesulfonamide] | 2220
4 | COc1ccc(S(=O)(=O)N(Cc2ccc(F)cc2)CC2CCC(C(=O)O)CC2)cc1 (stereo not drawn) [Example 5-123, 4-((N-(4-fluorobenzyl)-4-methoxyphenylsulfonamido)methyl) cyclohexanecarboxylic acid] | 92
5 | CC(=O)Nc1ccc(S(=O)(=O)N(Cc2ccc(F)cc2)CC2CCC(C(=O)O)CC2)cc1 (stereo not drawn) [Example 5-124, 4-((4-acetamido-N-(4-fluorobenzyl)phenylsulfonamido)methyl) cyclohexanecarboxylic acid] | 842
6 | Nc1ccc(S(=O)(=O)N(Cc2ccc(F)cc2)CC2CCC(C(=O)O)CC2)cc1 (stereo not drawn) [Example 5-125, 4-((4-amino-N-(4-fluorobenzyl)phenylsulfonamido)methyl) cyclohexanecarboxylic acid] | 1650
7 | Cc1ccc(CN(CC2CCC(C(=O)O)CC2)S(=O)(=O)c2ccc(C)cc2)cc1 (stereo not drawn) [Example 5-126, 4-((4-methyl-N-(4-methylbenzyl)phenylsulfonamido)methyl) cyclohexanecarboxylic acid] | 109
8 | Cc1ccc(S(=O)(=O)N(Cc2ccc(C#N)cc2)CC2CCC(C(=O)O)CC2)cc1 (stereo not drawn) [Example 5-127, 4-((N-(4-cyanobenzyl)-4-methylphenylsulfonamido)methyl) cyclohexanecarboxylic acid] | 499
9 | COc1cccc(CN(CC2CCC(C(=O)O)CC2)S(=O)(=O)c2ccc(C)cc2)c1 (stereo not drawn) [Example 5-128, 4-((N-(3-methoxybenzyl)-4-methylphenylsulfonamido)methyl) cyclohexanecarboxylic acid] | 36
10 | COc1ccc(CN(Cc2ccccc2C)S(=O)(=O)c2ccc(C(=O)O)cc2)cc1 [Example 5-129, 4-(N-(4-methoxybenzyl)-N-(2-methylbenzyl)sulfamoyl)benzoic acid] | 5320
11 | COc1ccc(CN(Cc2ccccc2Cl)S(=O)(=O)c2ccc(C(=O)O)cc2)cc1 [Example 5-130, 4-(N-(2-chlorobenzyl)-N-(4-methoxybenzyl)sulfamoyl)benzoic acid] | 7040
12 | O=C(O)c1ccc(S(=O)(=O)N(Cc2ccccc2)Cc2ccc(F)cc2)cc1 [Example 5-131, 4-(N-benzyl-N-(4-fluorobenzyl)sulfamoyl)benzoic acid] | 8280
13 | Cc1ccc(CN(Cc2ccccc2)S(=O)(=O)c2ccc(C(=O)O)cc2)cc1 [Example 5-132, 4-(N-benzyl-N-(4-methylbenzyl)sulfamoyl)benzoic acid] | 5390
14 | COc1ccccc1CN(Cc1ccccc1)S(=O)(=O)c1ccc(C(=O)O)cc1 [Example 5-133, 4-(N-benzyl-N-(2-methoxybenzyl)sulfamoyl)benzoic acid] | 5060
15 | O=C(O)c1ccc(S(=O)(=O)N(Cc2ccccc2)Cc2ccccc2F)cc1 [Example 5-134, 4-(N-benzyl-N-(2-fluorobenzyl)sulfamoyl)benzoic acid] | 6160
16 | Cc1cccc(CN(Cc2ccccc2)S(=O)(=O)c2ccc(C(=O)O)cc2)c1 [Example 5-135, 4-(N-benzyl-N-(3-methylbenzyl)sulfamoyl)benzoic acid] | 2290
17 | COc1cccc(CN(Cc2ccccc2)S(=O)(=O)c2ccc(C(=O)O)cc2)c1 [Example 5-136, 4-(N-benzyl-N-(3-methoxybenzyl)sulfamoyl)benzoic acid] | 5990

Row | SMILES | IC50 [nM]
18 | O=C(O)c1ccc(S(=O)(=O)N(Cc2ccccc2)Cc2ccc(Cl)cc2)cc1 [Example 5-137, 4-(N-benzyl-N-(4-chlorobenzyl)sulfamoyl)benzoic acid] | 3980
19 | CSc1ccc(CN(Cc2ccccc2)S(=O)(=O)c2ccc(C(=O)O)cc2)cc1 [Example 5-138, 4-(N-benzyl-N-(4-(methylthio)benzyl)sulfamoyl)benzoic acid] | 2460
20 | O=C(O)c1ccc(S(=O)(=O)N(Cc2ccccc2)Cc2cccc(F)c2)cc1 [Example 5-139, 4-(N-benzyl-N-(3-fluorobenzyl)sulfamoyl)benzoic acid] | 2310
21 | Cc1ccccc1CN(Cc1ccccc1)S(=O)(=O)c1ccc(C(=O)O)cc1 [Example 5-140, 4-(N-benzyl-N-(2-methylbenzyl)sulfamoyl)benzoic acid] | 2930
22 | O=C(O)c1ccc(S(=O)(=O)N(Cc2ccccc2)Cc2ccccc2Cl)cc1 [Example 5-141, 4-(N-benzyl-N-(2-chlorobenzyl)sulfamoyl)benzoic acid] | 4490
23 | O=C(O)c1ccc(S(=O)(=O)N(Cc2ccccc2)Cc2cccc(Cl)c2)cc1 [Example 5-142, 4-(N-benzyl-N-(3-chlorobenzyl)sulfamoyl)benzoic acid] | 4290
24 | CCc1ccc(CN(Cc2ccccc2)S(=O)(=O)c2ccc(C(=O)O)cc2)cc1 [Example 5-143, 4-(N-benzyl-N-(4-ethylbenzyl)sulfamoyl)benzoic acid] | 8580
25 | COc1ccc(CN(Cc2ccccc2)S(=O)(=O)c2ccc(C(=O)O)cc2)cc1C [Example 5-144, 4-(N-benzyl-N-(4-methoxy-3-methylbenzyl)sulfamoyl)benzoic acid] | 2000
26 | COc1ccc(CN(Cc2ccccc2)S(=O)(=O)c2ccc(C(=O)O)cc2)cn1 [Example 5-145, 4-(N-benzyl-N-((6-methoxypyridin-3-yl)methyl)sulfamoyl)benzoic acid] | 3260
27 | N#Cc1ccc(CN(Cc2ccccc2)S(=O)(=O)c2ccc(C(=O)O)cc2)cc1 [Example 5-146, 4-(N-benzyl-N-(4-cyanobenzyl)sulfamoyl)benzoic acid] | 1850
28 | N#Cc1ccccc1CN(Cc1ccccc1)S(=O)(=O)c1ccc(C(=O)O)cc1 [Example 5-147, 4-(N-benzyl-N-(2-cyanobenzyl)sulfamoyl)benzoic acid] | 4630
29 | O=C(O)c1ccc(S(=O)(=O)N(Cc2ccccc2)Cc2ccc3c(c2)OCO3)cc1 [Example 5-148, 4-(N-(benzo[d][1,3]dioxol-5-ylmethyl)-N-benzylsulfamoyl)benzoic acid] | 2170
30 | COc1ccc(CN(C(C)c2ccccc2)S(=O)(=O)c2ccc(C(=O)O)cc2)cc1 (stereo not drawn) [Example 5-149, 4-(N-(4-methoxybenzyl)-N-(1-phenylethyl)sulfamoyl)benzoic acid] | 1400
31 | COc1ccc(CN(C2CCCc3ccccc32)S(=O)(=O)c2ccc(C(=O)O)cc2)cc1 (stereo not drawn) [Example 5-150, 4-(N-(4-methoxybenzyl)-N-(1,2,3,4-tetrahydronaphthalen-1-yl)sulfamoyl)benzoic acid] | 2420
32 | COc1ccc2c(c1)-c1ccccc1CN(S(=O)(=O)c1ccc(C(=O)O)cc1)C2 [Example 5-158, 4-(2-methoxy-5H-dibenzo[c,e]azepin-6(7H)-ylsulfonyl)benzoic acid] | 3570
33 | COc1ccc(CN(Cc2ccc(F)cc2F)S(=O)(=O)c2ccc(C(=O)O)cc2)cc1 [Example 5-160, 4-(N-(2,4-difluorobenzyl)-N-(4-methoxybenzyl)sulfamoyl)benzoic acid] | 1260
